Measured values as given in ChEMBL document CHEMBL1141723, “Specific targeting of metzincin family members with small-molecule inhibitors: progress toward a multifarious challenge” (Bioorg Med Chem, 2008).
Calls of active or inactive are those of the source. No cut-off for these calls is given here.

Experiments:
[1] = biological target: T1, 72 kDa type IV collagenase (Homo sapiens, UniProt P08253); test: Inhibition of MMP2 up to 100 uM
Target sequence in this assay (P08253 110-660 limits assumed): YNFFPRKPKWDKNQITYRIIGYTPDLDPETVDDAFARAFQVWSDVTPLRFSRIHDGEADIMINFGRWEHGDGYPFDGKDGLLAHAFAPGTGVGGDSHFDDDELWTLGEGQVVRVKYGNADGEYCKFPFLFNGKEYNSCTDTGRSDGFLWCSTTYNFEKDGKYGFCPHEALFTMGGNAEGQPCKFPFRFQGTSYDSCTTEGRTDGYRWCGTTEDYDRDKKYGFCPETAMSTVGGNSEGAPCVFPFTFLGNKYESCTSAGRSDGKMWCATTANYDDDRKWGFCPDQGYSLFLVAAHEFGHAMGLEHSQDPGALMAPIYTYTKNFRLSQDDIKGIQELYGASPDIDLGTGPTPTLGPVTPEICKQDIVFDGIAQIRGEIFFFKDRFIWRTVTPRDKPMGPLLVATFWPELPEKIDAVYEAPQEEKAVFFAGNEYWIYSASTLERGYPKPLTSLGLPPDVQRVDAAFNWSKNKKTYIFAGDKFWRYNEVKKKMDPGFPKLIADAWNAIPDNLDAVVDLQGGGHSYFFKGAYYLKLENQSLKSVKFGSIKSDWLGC

[2] = biological target: T2, Matrix metalloproteinase-17 (Homo sapiens) (UniProt Q9ULZ9); test: Inhibition of MMP17 up to 100 uM
T2 sequence (whole entry): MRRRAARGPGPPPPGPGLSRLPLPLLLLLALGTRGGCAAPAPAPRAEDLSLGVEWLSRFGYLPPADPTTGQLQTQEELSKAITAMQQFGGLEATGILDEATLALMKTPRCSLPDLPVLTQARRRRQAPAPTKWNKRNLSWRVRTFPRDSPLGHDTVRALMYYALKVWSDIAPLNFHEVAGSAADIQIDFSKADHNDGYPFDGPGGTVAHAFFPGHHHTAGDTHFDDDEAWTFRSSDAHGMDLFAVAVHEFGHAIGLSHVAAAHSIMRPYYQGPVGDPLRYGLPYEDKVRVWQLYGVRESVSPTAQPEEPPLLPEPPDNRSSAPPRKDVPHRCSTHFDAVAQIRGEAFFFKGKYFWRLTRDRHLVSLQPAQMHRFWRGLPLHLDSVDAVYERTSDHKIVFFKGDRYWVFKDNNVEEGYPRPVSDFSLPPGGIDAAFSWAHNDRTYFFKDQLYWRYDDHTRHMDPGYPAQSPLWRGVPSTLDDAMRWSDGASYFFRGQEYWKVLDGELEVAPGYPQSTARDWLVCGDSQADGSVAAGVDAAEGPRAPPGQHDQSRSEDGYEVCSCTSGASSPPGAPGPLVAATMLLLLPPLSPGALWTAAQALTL

[3] = biological target: T3, Matrix metalloproteinase-9 (Homo sapiens, UniProt P14780); test: Inhibition of MMP9 up to 100 uM
[4] = biological target: T4, Macrophage metalloelastase (Homo sapiens, UniProt P39900); test: Inhibition of MMP12 up to 100 uM
Target sequence in this assay (P39900 106-470 limits assumed): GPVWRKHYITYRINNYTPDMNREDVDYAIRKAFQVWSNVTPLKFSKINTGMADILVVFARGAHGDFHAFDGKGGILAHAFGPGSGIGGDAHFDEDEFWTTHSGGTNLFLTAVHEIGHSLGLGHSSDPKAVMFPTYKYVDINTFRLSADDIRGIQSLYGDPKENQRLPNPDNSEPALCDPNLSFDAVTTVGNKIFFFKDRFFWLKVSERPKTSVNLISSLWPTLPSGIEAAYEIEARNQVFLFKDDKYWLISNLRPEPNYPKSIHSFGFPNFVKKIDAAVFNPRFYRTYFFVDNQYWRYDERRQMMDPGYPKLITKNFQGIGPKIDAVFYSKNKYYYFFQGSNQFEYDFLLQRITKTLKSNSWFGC

[5] = biological target: T5, Matrix metalloproteinase-14 (Homo sapiens, UniProt P50281); test: Inhibition of MMP14 up to 100 uM
[6] = biological target: T6, Interstitial collagenase (Homo sapiens) (UniProt P03956); test: Inhibition of MMP1 at 100 uM
T6 sequence (whole entry): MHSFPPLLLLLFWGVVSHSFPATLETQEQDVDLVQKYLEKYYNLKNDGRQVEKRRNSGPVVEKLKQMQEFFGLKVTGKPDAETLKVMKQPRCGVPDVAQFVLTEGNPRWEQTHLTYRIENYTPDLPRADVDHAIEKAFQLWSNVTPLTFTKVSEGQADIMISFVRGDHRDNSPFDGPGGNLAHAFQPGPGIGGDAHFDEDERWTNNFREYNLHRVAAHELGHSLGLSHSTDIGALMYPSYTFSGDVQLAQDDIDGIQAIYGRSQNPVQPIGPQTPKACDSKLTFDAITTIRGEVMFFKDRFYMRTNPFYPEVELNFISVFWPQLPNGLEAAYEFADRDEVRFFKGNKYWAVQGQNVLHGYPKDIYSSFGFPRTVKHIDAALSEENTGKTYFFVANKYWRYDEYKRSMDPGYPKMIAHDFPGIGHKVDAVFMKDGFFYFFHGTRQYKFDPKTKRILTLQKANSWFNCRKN

Neutrophil collagenase [7] = biological target: T7, Neutrophil collagenase (Homo sapiens, UniProt P22894); test: Inhibition of MMP8 up to 100 uM
Target sequence in this assay (P22894 101-467 limits assumed): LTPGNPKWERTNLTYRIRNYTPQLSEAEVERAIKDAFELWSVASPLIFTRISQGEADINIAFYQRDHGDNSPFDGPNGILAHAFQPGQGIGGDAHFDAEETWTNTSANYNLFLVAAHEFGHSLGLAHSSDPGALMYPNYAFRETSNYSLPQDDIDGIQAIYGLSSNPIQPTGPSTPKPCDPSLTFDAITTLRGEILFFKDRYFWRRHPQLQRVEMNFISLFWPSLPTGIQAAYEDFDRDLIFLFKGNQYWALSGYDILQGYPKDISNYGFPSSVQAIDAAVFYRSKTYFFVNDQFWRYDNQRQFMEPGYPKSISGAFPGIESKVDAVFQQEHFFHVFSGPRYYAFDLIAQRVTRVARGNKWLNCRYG

Stromelysin-1 [8] = biological target: T8, Stromelysin-1 (Homo sapiens, UniProt P08254); test: Inhibition of MMP3 up to 100 uM
Target sequence in this assay (P08254 100-477 limits assumed): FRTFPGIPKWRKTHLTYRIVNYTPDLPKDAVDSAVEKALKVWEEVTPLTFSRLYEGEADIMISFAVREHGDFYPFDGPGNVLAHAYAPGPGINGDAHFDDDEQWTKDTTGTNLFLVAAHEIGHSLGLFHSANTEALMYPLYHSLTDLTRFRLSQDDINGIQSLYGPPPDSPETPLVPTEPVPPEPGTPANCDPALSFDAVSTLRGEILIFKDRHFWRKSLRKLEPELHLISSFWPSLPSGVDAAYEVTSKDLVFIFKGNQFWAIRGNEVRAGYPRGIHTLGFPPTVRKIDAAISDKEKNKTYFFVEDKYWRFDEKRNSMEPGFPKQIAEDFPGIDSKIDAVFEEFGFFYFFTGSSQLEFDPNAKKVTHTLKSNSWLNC

[9] = biological target: T9, Matrilysin (Homo sapiens) (UniProt P09237); test: Inhibition of MMP7 up to 100 uM
T9 sequence (whole entry): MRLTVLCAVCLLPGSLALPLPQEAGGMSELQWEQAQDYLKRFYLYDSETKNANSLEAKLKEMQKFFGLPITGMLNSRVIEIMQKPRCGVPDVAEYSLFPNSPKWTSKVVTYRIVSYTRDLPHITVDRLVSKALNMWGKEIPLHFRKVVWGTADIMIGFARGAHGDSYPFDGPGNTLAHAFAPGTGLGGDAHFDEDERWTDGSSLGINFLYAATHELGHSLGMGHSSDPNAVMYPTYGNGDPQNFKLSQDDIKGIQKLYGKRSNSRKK

[10] = biological target: T1, 72 kDa type IV collagenase
Target sequence in this assay (P08253 whole entry): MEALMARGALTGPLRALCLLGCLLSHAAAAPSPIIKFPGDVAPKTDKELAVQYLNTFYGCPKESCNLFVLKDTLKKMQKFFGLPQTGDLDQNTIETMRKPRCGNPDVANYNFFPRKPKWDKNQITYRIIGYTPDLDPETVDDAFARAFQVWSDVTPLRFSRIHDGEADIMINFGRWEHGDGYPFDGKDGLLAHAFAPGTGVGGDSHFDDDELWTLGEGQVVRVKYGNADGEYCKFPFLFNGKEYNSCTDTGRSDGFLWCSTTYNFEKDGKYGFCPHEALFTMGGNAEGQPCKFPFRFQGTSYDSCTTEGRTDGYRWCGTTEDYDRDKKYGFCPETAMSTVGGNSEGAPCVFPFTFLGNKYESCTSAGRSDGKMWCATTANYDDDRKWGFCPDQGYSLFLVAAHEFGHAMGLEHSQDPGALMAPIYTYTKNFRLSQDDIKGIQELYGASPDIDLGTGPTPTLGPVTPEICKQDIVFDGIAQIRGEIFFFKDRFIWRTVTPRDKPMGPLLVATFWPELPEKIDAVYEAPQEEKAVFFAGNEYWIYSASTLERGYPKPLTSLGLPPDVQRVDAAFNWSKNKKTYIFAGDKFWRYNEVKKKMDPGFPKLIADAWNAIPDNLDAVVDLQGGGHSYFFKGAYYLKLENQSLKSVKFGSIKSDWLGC

Interstitial collagenase = biological target: T10, Interstitial collagenase (Homo sapiens, UniProt P03956)
T10 sequence (P03956 whole entry): T6 sequence (whole entry)

[11] = biological target: Disintegrin and metalloproteinase domain-containing protein 17 (Homo sapiens, UniProt P78536); test: Inhibition of TACE
[12] = biological target: T4, Macrophage metalloelastase; test: Inhibition of MMP12
[13] = biological target: T11, Disintegrin and metalloproteinase domain-containing protein 10 (Homo sapiens, UniProt O14672); test: Inhibition of ADAM10
T11 sequence (O14672 whole entry): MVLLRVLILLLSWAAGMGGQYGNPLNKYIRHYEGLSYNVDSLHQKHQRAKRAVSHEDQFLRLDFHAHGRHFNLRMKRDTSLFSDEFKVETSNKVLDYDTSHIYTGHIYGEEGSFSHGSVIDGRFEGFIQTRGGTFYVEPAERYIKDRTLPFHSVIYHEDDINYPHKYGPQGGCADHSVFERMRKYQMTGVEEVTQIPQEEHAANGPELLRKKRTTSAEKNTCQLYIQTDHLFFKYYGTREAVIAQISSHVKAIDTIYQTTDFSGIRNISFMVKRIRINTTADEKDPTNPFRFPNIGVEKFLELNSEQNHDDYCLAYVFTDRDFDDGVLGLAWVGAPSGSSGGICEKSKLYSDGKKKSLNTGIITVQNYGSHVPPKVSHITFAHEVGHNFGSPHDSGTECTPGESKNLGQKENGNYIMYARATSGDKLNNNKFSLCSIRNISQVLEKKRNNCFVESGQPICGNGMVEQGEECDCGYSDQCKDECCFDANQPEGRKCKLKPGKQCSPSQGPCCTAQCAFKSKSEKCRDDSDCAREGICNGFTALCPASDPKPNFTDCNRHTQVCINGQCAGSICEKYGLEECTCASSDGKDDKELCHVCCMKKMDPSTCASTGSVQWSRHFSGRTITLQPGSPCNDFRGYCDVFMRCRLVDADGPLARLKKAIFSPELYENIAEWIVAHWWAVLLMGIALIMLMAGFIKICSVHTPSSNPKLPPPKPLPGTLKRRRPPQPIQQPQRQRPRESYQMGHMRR

[14] = biological target: T5, Matrix metalloproteinase-14; test: Inhibition of MMP14
Neutrophil collagenase [15] = biological target: T7, Neutrophil collagenase; test: Inhibition of MMP8
Target sequence in this assay (P22894 whole entry): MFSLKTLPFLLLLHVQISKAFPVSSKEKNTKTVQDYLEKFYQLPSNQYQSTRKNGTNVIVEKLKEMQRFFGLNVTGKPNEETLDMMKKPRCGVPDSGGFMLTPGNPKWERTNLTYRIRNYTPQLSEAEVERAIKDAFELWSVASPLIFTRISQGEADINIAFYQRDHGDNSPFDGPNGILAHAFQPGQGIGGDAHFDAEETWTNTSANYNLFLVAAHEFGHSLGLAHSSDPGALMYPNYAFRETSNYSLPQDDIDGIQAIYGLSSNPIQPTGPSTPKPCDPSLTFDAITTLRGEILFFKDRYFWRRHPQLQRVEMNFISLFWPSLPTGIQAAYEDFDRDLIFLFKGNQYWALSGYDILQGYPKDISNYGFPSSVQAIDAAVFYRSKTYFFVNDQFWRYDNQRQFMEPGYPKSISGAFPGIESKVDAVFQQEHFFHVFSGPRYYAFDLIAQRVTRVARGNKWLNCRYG

Stromelysin-1 [16] = biological target: T8, Stromelysin-1
Target sequence in this assay (P08254 whole entry): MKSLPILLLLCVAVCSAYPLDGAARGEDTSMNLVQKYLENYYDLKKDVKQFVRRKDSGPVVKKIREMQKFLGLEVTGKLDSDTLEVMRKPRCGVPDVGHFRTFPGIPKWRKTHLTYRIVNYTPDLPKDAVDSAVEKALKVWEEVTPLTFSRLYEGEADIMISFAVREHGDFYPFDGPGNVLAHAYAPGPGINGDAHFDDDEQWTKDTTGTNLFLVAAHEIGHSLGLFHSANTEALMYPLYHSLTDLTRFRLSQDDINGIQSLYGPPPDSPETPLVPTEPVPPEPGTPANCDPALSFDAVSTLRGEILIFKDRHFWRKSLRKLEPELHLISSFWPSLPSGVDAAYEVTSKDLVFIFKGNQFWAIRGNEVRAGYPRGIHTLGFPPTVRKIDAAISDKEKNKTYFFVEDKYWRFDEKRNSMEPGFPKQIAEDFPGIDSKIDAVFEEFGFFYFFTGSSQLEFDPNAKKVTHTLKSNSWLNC

[17] = Selectivity for TACE over ADAM10
[18] = Selectivity for TACE over BMP1
[19] = Selectivity for TACE over MMP7
[20] = Selectivity for TACE over MMP14
[21] = Selectivity for TACE over MMP1
[22] = Selectivity for TACE over MMP2
[23] = Selectivity for TACE over MMP3
Collagenase 3 = Collagenase 3 (Homo sapiens, UniProt P45452); test: Inhibition of MMP13
[24] = Inhibition of bovine aggrecanase; parameters: species or system Bos taurus
[25] = biological target: T3, Matrix metalloproteinase-9; test: Inhibition of MMP9
Matrilysin = biological target: T12, Matrilysin (Homo sapiens, UniProt P09237)
T12 sequence (P09237 whole entry): T9 sequence (whole entry)

Chain of Disintegrin and metalloproteinase domain-containing protein 17 (P78536 whole entry, the tested form may be a part): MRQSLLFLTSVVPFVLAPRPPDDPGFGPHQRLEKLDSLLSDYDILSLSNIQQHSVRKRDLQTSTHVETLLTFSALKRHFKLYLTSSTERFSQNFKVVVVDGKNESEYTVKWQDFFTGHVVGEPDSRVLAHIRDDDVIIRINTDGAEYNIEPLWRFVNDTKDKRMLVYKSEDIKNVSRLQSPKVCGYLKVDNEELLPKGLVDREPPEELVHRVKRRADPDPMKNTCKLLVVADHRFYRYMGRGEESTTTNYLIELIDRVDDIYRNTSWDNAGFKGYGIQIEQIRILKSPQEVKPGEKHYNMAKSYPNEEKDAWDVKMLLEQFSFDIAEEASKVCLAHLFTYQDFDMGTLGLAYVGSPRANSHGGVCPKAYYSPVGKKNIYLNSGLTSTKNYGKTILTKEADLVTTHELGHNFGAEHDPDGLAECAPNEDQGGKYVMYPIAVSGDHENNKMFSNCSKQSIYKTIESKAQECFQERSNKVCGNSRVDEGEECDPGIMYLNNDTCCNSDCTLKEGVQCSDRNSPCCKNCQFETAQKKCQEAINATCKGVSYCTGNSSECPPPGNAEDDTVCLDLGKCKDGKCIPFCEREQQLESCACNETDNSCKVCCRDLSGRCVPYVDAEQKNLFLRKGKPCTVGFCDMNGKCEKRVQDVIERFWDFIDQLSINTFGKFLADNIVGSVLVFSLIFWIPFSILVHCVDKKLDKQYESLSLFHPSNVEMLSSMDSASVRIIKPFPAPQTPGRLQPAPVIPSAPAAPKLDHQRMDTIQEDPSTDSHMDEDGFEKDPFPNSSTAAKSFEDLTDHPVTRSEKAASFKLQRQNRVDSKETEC
T3 sequence (P14780 whole entry): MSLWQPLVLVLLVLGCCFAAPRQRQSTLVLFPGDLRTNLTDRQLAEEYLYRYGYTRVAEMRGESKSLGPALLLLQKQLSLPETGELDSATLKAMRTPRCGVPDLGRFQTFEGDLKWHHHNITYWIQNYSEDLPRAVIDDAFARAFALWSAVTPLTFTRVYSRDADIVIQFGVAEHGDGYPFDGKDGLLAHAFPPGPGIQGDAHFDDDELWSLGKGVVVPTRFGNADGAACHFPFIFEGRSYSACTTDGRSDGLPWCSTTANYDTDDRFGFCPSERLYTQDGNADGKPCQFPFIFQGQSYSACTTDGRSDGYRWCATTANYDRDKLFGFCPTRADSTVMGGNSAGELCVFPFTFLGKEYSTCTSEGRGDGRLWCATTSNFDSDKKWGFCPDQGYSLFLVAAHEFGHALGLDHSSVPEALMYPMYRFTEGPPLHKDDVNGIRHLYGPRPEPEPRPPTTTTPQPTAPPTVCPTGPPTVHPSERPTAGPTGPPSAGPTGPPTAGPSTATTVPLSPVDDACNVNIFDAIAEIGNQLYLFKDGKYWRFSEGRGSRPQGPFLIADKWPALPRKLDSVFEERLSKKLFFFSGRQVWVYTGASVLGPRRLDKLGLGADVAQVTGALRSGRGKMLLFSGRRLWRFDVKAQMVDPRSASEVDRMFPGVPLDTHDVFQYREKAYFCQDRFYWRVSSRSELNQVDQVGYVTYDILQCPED

O=C(OCc1ccccc1)c1cn2c(=O)n(Cc3ccccc3)c(=O)cc2s1
Activity [1]: inactive
Activity [2]: inactive
Activity [3]: inactive
Activity [4]: inactive
Activity [5]: inactive
Activity [6]: inactive
Activity (Neutrophil collagenase [7]): inactive
Activity (Stromelysin-1 [8]): inactive
Activity [9]: inactive

Cc1cc(=O)c(O)c(C(=O)NCc2ccc(-c3ccc(-c4ccccc4)cc3)cc2)o1
IC50 [10]: > 50 µM
IC50 (Interstitial collagenase): > 50 µM

Cn1c(=O)n(Cc2ccc(C(=O)O)cc2)c(=O)c2cc(C#CCc3ccccc3)ccc21
Activity [1]: inactive
Activity [2]: inactive
Activity [3]: inactive
Activity [4]: inactive
Activity [5]: inactive
Activity [6]: inactive
Activity (Neutrophil collagenase [7]): inactive
Activity (Stromelysin-1 [8]): inactive
Activity [9]: inactive

CN1CC2(CC2)C[C@H](C(=O)NO)[C@H]1C(=O)N1CCN(c2ccc(C(F)(F)F)cn2)CC1
IC50 [11]: 2.04 µM
IC50 [12]: 0.564 µM
IC50 [13]: 0.097 µM

Cc1cc(COc2ccc(S(=O)(=O)CC(C=C3CCN(CC(C)C)CC3)N(O)C=O)cc2)c2ccccc2n1 (configuration not stated)
IC50 [14]: > 100 µM
IC50 (Neutrophil collagenase [15]): > 100 µM
IC50 (Interstitial collagenase): > 100 µM

COc1c(Br)ccc2oc(COc3ccc(-c4ccc(S(=O)(=O)N[C@@H](C(=O)O)C(C)C)cc4)cc3)c(C)c12
IC50 [11]: > 25 µM
IC50 (Stromelysin-1 [16]): 0.081 µM
IC50 (Neutrophil collagenase [15]): 0.042 µM
IC50 (Interstitial collagenase): > 400 µM

COC[C@@H](NC(=O)[C@@H](NC(=O)[C@H](CCCc1ccc(-c2ccccc2)c(C)c1)CC(=O)O)C(C)(C)C)c1ccccc1
inhibition [6]: 20%

COC(=O)[C@]1(c2cccc(OCc3cc(C)nc4ccccc34)c2)C[C@H]1C(=O)NO
fold change (FC) [17]: 4
fold change (FC) [18]: 1400
fold change (FC) [19]: > 8300
fold change (FC) [20]: 770
fold change (FC) [21]: > 8300
fold change (FC) [22]: 3400
fold change (FC) [23]: 1300

CC1(CN[C@H](C(=O)NO)[C@@H](Cc2cccc(O)c2)C(=O)N[C@H]2c3ccccc3C[C@H]2O)CC1
Ki [10]: > 3 µM
Ki (Collagenase 3): > 5 µM
Ki (Stromelysin-1 [16]): > 4.5 µM
IC50 [24]: 0.008 µM
Ki (Interstitial collagenase): 5.25 µM
Ki [25]: < 0.001 µM

O=S(=O)(CC1CS1)c1ccc(Oc2ccccc2)cc1 (configuration not stated)
Ki [11]: 3.7 µM

O=C(O)C[C@@H](NC(=O)c1cc(-c2ccc(-c3ccncc3)cc2)cs1)c1ccccc1
IC50 [10]: > 100 µM
IC50 (Stromelysin-1 [16]): 0.39 µM
IC50 (Neutrophil collagenase [15]): 1.7 µM
IC50 [25]: 0.98 µM

CC#CCOc1ccc(S(=O)(=O)N[C@@H](C(=O)NO)[C@H](C)O)cc1
IC50 (Collagenase 3): 0.096 µM
IC50 [14]: 0.582 µM
IC50 [11]: 0.002 µM
IC50 (Neutrophil collagenase [15]): 0.035 µM
IC50 (Interstitial collagenase): 2.47 µM
IC50 [25]: 0.777 µM
IC50 (Matrilysin): 0.961 µM
IC50 [13]: 1.09 µM

Cc1cc(C#N)ccc1N1CCN(S(=O)(=O)CC2(C(=O)NO)CCN(C(=O)O[C@@H]3CCOC3)CC2)CC1
IC50 [10]: > 5 µM
IC50 (Stromelysin-1 [16]): > 5 µM
IC50 (Interstitial collagenase): > 5 µM
IC50 [25]: > 5 µM
IC50 [13]: 0.026 µM
